Results on eleven compounds are retold here after patent publication US9682908B2, “Method for producing butanol using extractive fermentation” (BUTAMAX ADVANCED BIOFUELS LLC, priority 2013, dated 2017).

Series [1] in a line: Equilibrium moisture content of solvent. In kind it is physicochemical. Conditions: Table 1. From the text:
The term “moisture content” as used herein refers to the equilibrium saturation of water contained by the solvent, whether or not product alcohol, e.g., isobutanol is present. At times the term “equilibrium” is used in conjunction with “moisture content” to indicate “moisture content” is related to a particular set of conditions, e.g., temperature, pressure, and so on. As will, be apparent, moisture content commonly refers to a maximum amount of water that can be dissolve by the solvent/solvent mixture given a certain set of conditions.
While the solvent mixture or portions thereof can be immiscible in water, e.g., on the order of 10^−7, in some instances one or more of the solvents can be comparatively weakly miscible in water. It is also to be appreciated, that water can be miscible (e.g., somewhat miscible) in the solvent mixture and/or miscible in one or more solvents included in the solvent mixture. COFA in some examples can absorb moisture, or water, such that the COFA is “wet”. A solvent's tendency to absorb moisture, e.g., act as a solvent, in some examples, can differ from that solvent's ability to solvate in water, e.g., its hydrophobicity. A table of various solvents and their respective characteristics is reproduced directly below.

Series [2] has as its system genetically modified isobutanolagen yeast strain (PNY2141). The series is classed as cell-based. To be noted: for Glucose, gpl Grams per Liter / OD: With solvent.
Another series relates to butanologen. Briefly: Biocompatibility with a butanologen (discussion of examples). In kind it is cell-based.
The subject of series [3] is genetically modified isobutanolagen yeast strain PNY2310. In kind it is cell-based. To be noted: for Glucose: Example 9, With Solvent.
Series [4] is described as follows: Isobutanol partitioning between solvent and water (Kd, butanol partition coefficient).
The test system of a further series is ethanol red yeast strain. Briefly: Biocompatibility shake flask, glucose (Example 12). In kind it is cell-based.
Series [5] relates to genetically modified isobutanologen yeast strain. Briefly: Biocompatibility shake flask, OD and glucose (Examples 2, 3). To be noted: for Glucose / OD: Example 3, With Solvent. In kind it is cell-based.
In the next series the test system is Sacchromyces Cerevisiae. Conditions: in vitro; Bennis et al. 2004; cited from earlier work.
The subject of series [6] is naturally occurring ethanologen yeast strain. The series is described as follows: Biocompatibility shake flask, glucose uptake (Example 1A). Conditions: 32° C. The series is classed as cell-based.
Setting [7] is: aqueous 2.0 wt % isobutanol, half its mass of solvent.
Setting [8] is: aqueous 2.0 wt % isobutanol, half its mass of solvent (5 g/2.5 g or 1 g/0.5 g), HPLC.
[9] abbreviates: 10 ml aqueous 6 wt % isobutanol + 1 ml solvent.
Setting [10] is: 10 ml aqueous 6 wt % isobutanol + 1 ml solvent, gas chromatography.
Where [11] appears, read: aqueous 2.0 wt % isobutanol, equal mass of solvent.
Setting [12] is: aqueous 2.0 wt % isobutanol, equal mass of solvent (3 g/3 g or 5 g/5 g), HPLC.
Setting [13] is: time 0 hr, 10 ml solvent on 20 ml medium, 32° C.

In brackets after ≈: the same amount, converted by molar mass. Like-named read-outs stand apart in the source and are kept apart here.

As to `CC(CC(C)(C)C)CC(C)(C)CC(C)(C)C` (stereo not drawn) [Isohexadecane, 2,2,4,4,6,8,8-heptamethylnonane], in series [1], the “Moisture Content (wt %)” value was less than 0.01 wt %.

Consider `CC(C)c1cccc(C(C)C)c1` [1,3-diisopropylbenzene], for which the “consumption of glucose in presence of solvent” value in [2] (Example 6A) is “No significant consumption of glucose”. The “Glucose (grams per liter, gpl)” value in [2] (Example 6A, time 0 hours, 1.0 OD PNY2141, 10 ml solvent on 20 ml medium, 32° C.) was found to be 30 gpl; in series [2] (Example 6A, time 6 hours) it was 30 gpl; in series [2] (Example 6A, time 11 hours), 30 gpl; in series [2] (Example 6A, time 16 hours), 28 gpl; in series [2] (Example 6A, time 24 hours) it was 29 gpl. Further, the “biocompatibility with a butanologen (found in testing)” value (“biocompatibility with a butanologen” for short) in the series on butanologen was “not to be biocompatible”.

Turning to `CCCCN(CCCC)C(=O)N(CCCC)CCCC` [Tetrabutylurea, tetrabutylurea], in series [1], the “Moisture Content (wt %)” value is given as 0.9 wt %. Besides, the “glucose concentration versus flask without solvent” value in series [3] (Example 9) is recorded as “No significant difference”. Further, the “Glucose” value is given as 28 g/L in series [3] (time 0 hr, 0.5 OD PNY2310, 10 ml solvent on 20 ml medium, 32° C.); 25 g/L in [3] (time 4 hr); 14 g/L in series [3] (time 8 hr); 0 g/L in [3] (time 12 hr). In the series on butanologen, the “biocompatibility with a butanologen” value is given as “biocompatible with a butanologen”. Also, the “isobutanol in organic layer, calculated by mass balance” value in series [4] (setting [7]) was 3.06 wt %. This compound also showed a mass partitioning coefficient in series [4] (setting [7]) of 7.35. In addition, the “isobutanol in aqueous layer” value in series [4] (setting [8]) is 0.417 wt %.

Regarding `CCCCC(CC)COP(=O)(OCC(CC)CCCC)OCC(CC)CCCC` (stereo not drawn) [tris(2-ethylhexyl) phosphate], the “inhibition in glucose consumption” value in the series with ethanol red yeast strain (Example 12) is given as “No significant inhibition in glucose consumption”. The “Glucose (grams per liter, gpl)” value is reported as 17 gpl in the series with ethanol red yeast strain (time 0 hours, 1.1 OD, 10 ml solvent on 20 ml medium, 32° C.); 0 gpl in the series with ethanol red yeast strain (time 5 hours); 11.5 gpl in the series on ethanol red yeast strain (time […]).

For `Cc1ccc(C(C)C)cc1O` [Carvacrol, carvacrol], the “Moisture Content (wt %)” value in series [1] was determined as 2 wt %. For the same compound, in series [4] (setting [7]), the “isobutanol in organic layer, calculated by mass balance” value is 3.42 wt % and the mass partitioning coefficient is given as 15.5. Also, the “isobutanol in aqueous layer” value in [4] (setting [8]) came to 0.22 wt %.

For `CCN(CC)C(=O)c1cccc(C)c1` [DEET, diethyl m-toluamide], in series [4] (setting [7]), the “isobutanol in organic layer, calculated by mass balance” value is on record as 3.17 wt % and the mass partitioning coefficient is 9.2. For the same compound, the “isobutanol in aqueous layer” value in series [4] (setting [8]) worked out at 0.34 wt %.

Consider `CCCCC(CC)CO` (stereo not drawn) [2-ethylhexanol], for which the “Moisture Content (wt %)” value in [1] is reported as 2 wt %.

Take `CC(CC(C)(C)C)CC(C)(C)C` [isododecane, 2,2,4,6,6-pentamethylheptane]: the “Moisture Content (wt %)” value in series [1] is reported as less than 0.01 wt %. For the same compound, in series [5] (Example 3), the “growth (glucose uptake and OD) versus flask without solvent” value is “No significant difference in growth”. Also, the “Glucose” value in series [5] (time 0 hr) is listed as 32 g/L; in series [5] (time 7 hr), 32 g/L; in series [5] (time 13 hr), 25 g/L; in series [5] (time 23 hr), 5 g/L; in series [5] (time 29 hr) it was 0.1 g/L. Also, the OD in series [5] (time 0 hr, 32 g/liter glucose, 10 ml solvent on 20 ml medium, 32° C.) came out at 0.5; in [5] (time 7 hr) it was 0.9; in [5] (time 13 hr), 1.6; in [5] (time 23 hr), 4.9; in [5] (time 29 hr) it was 5.0. In addition, the “biocompatibility with a butanologen” value with butanologen is “biocompatible with a butanologen”. Also, the “isobutanol in aqueous layer” value stood at 1.39 mole % in [4] (setting [9]), 5.45 wt % in series [4] (setting [10]) and 1.60 wt % in series [4] (setting [12]). In addition, the figures for the “isobutanol in organic layer” value in [4] (setting [9]) and in series [4] (setting [10]) were 17.24 mole % and 8.31 wt %, respectively. The mass partitioning coefficient in series [4] (setting [9]) amounted to 1.525; in series [4] (setting [11]), 0.25. In [4] (setting [9]), the molar partitioning coefficient came out at 12.4. Besides, the “isobutanol in organic layer, calculated by mass balance” value in [4] (setting [11]) is listed as 0.40 wt %.

As to `Cc1ccc(C(C)C)c(O)c1` [thymol], in the series with Sacchromyces Cerevisiae, the “MFC (minimum fungal concentration)” value is 1800 µM (≈ 270 µg/mL) and the “MIC, minimum inhibitory concentration” value is 1500 µM (≈ 225 µg/mL).

triisobutylene: the “glucose uptake versus flask without solvent” value in series [6] (4 hours) was “No significant difference in glucose uptake”. The “glucose in aqueous phase” value in [6] (after 4 hours, start 21 g/liter glucose, 0.5 OD, 10 ml solvent on 20 ml medium) is reported as “less than 0.1 g/liter”. Also, the “growth (OD and glucose) versus flask without solvent” value in series [2] (Example 1B, PNY2141, 32° C.) is on record as “Some impedance to growth”. The “Glucose, gpl Grams per Liter” value in series [2] (setting [13]) turned out to be 28 gpl; in series [2] (time 6 hr), 27 gpl; in series [2] (time 10 hr), 26 gpl; in [2] (time 19 hr) it was 22 gpl; in [2] (time 23 hr), 21 gpl; in [2] (time 30 hr), 14 gpl. The “Glucose, gpl Grams per Liter” value in series [2] (time 35 hr) is 10 gpl. Also, the OD is listed as 0.5 in series [2] (setting [13]); 0.6 in series [2] (time 6 hr); 0.8 in [2] (time 10 hr); 1.6 in series [2] (time 19 hr); 2.1 in series [2] (time 23 hr); 2.8 in series [2] (time 30 hr). In series [2] (time 35 hr), the OD came to 3.4. Moreover, the “isobutanol in aqueous layer” value was 1.33 mole % in [4] (setting [9]), 5.28 wt % in series [4] (setting [10]) and 1.53 wt % in series [4] (setting [12]). In addition, the “isobutanol in organic layer” value came to 18.39 mole % in series [4] (setting [9]) and 9.03 wt % in series [4] (setting [10]). The mass partitioning coefficient in series [4] (setting [9]) was found to be 1.71; in series [4] (setting [11]) it was 0.31. Also, the molar partitioning coefficient in [4] (setting [9]) turned out to be 13.8. Also, the “isobutanol in organic layer, calculated by mass balance” value in series [4] (setting [11]) is recorded as 0.47 wt %.

With `CC(C)CC(C)CC(O)CC(C)C` (stereo not drawn) [Isododecanol], in series [1], the “Moisture Content (wt %)” value is 0.2 wt %. In series [4] (setting [7]), the “isobutanol in organic layer, calculated by mass balance” value is recorded as 2.87 wt % and the mass partitioning coefficient worked out at 5.42. Further, in series [4] (setting [8]), the “isobutanol in aqueous layer” value is given as 0.53 wt %.
